Several values for one entry are separate records, joined by “and”; a condition that tells them apart may be missing. Equal values may be shown once. Read-outs that look alike come from different tables or passages of the source.
Legend:
Assay type in all cases: cell-based, human
NB4 cells [1] = details: 24 h
Method: The ANNEXIN V-FITC/PI double-staining method is established based on a principle of asymmetric loss of cell membrane in apoptotic cells, that is, externalization of phosphatidylserine. Determination of results: normal live cells: annexin V^−PI^−; apoptotic cells: annexin V^+PI^−, and necrotic or late apoptotic cells: annexin V^+PI^+.
NB4 cells at the logarithmic growth phase were seeded at a density of 1×10^5 cells/well into a 6-well plate, and dosed 24 h later. The proapoptotic effect of each group was detected according to the dosing methods in Table 1. The cells were collected 24 h after drug dosing and detected on a flow cytometer according to the operating procedure of an ANNEXIN V-FITC/PI apoptosis detection kit (purchased from Solarbio). The experiment was repeated three times.

NB4 cells [2] = details: single compound 30 μM; dosed 10 d
Method: When normal neutrophils or differentiated cells are stimulated, the production of intracellular superoxide anions increases. NBT receives hydrogen from NADPH in the differentiated cells and reduces into insoluble blue black or blue purple particles—formazane particles.
NB4 cells at the logarithmic growth phase were seeded at a density of 2×10^5 cells/well into a 6-well plate, and dosed 24 h later. […] 24 h after the last dose, the culture medium was discarded, and the cells were washed twice with PBS. 500 μL of a 0.1% NBT solution (purchased from Sigma and prepared from PBS) containing 1 μg/ml of phorbol ester (PMA, purchased from Sigma) was added to each well, and the cells were incubated at 37° C. for 30 min, washed twice with PBS, and observed under a microscope. In a 400× magnification field, 200 cells were randomly counted from each specimen. Cells containing gray or black formazane particles in the cytoplasm were counted as NBT reduction positive cells, and the percentage of the reduction positive cells was calculated. The experiment was repeated three times.

CD11b = test system: CD11b
Method: (§1) In an immunological marker examination of APL cells, CD11b is negative and CD33 is positive. The surface antigen CD33 is associated with the degree of cellular immaturity, while the surface antigen CD11b is associated with the degree of cellular maturity, High expression of CD11b, as an adhesion molecule on the cell surface, may be a marker of cell differentiation maturation.
(§2) NB4 cells at the logarithmic growth phase were seeded at a density of 2×10^5 cells/well into a 6-well plate, and dosed 24 h later. […] 24 h after the last dosing, cells were collected, centrifuged to remove the culture medium, washed twice with precooled PBS, and resuspended in 100 μL PBS. APC (allophycocyanin) and BB515 labeled CD11b and CD33 monoclonal antibodies and corresponding isotype antibodies (both purchased from BD, USA) were added respectively. Following mixing, the cells were incubated at 4° C. for 30 min, filtered through a cell filter membrane, and then detected.

CD33 = test system: CD33
Method: as §1, §2

NB4 cells [3] = details: 10 d; doses of Table 2 (alone 30 μM, pairs 15 μM each, DCI 10 μM each)
Method: NB4 cells at the logarithmic growth phase were seeded at a density of 2×10^5 cells/well into a 6-well plate, and dosed 24 h later. […] NB4 cells cultured for 10 d were centrifuged at 110 g for 3 min, smeared, fixed with methanol, and air dried naturally. Then, the cell smear was stained with Wright's-Giemsa for morphological observation. The experiment was repeated three times.

[4] = single compound 30 μM, dosed 10 d

Compound | Apoptosis rate of NB4 cells (%) (NB4 cells [1]; single compound 20 μM) | Apoptosis rate of NB4 cells (%) (NB4 cells [1]; single compound 40 μM) | NBT reduction positive rate in NB4 cells (%) (NB4 cells [2]) | Positive rate of CD11b expression in NB4 cells (%) (CD11b; [4]) | Positive rate of CD33 expression in NB4 cells (%) (CD33; [4]) | Morphology of NB4 cells (NB4 cells [3]) | Positive rate of CD11b expression in NB4 cells (%) (CD11b) | Positive rate of CD33 expression in NB4 cells (%) (CD33)
Nc1ncnc2c1ncn2[C@@H]1O[C@H](CO)C[C@H]1O [CDY, Cordycepin] | 10.70 ± 3.54% | 19.39 ± 5.64% | 3.19% and 3.19 ± 2.09% | 1.79 ± 1.42% | 37.14 ± 15.90% | no significant differences from the control group |  | 
O=C1Nc2ccccc2/C1=C1/Nc2ccccc2C1=O [IDB, Indirubin] | 28.88 ± 11.51% | 31.38 ± 8.92 % | 15.20% and 15.20 ± 4.10 % |  |  |  | 26.42 ± 10.91 % | 27.50 ± 16.67 %

From patent US20250127751A1, “Traditional Chinese Medicine Compound Preparation for Tumors and Application thereof” (priority 2023, published 2025)
